# Target: human TRPA1 (Homo sapiens (Human), UniProt O75762)
# Assay: In vitro inhibition of human TRPA1, whole cell patch configuration
# Assay type: cell-based
# Details: current activation 10 μM AITC, tested concentrations 320 pM to 3.2 μM, read-out: hTRPA1 IC50
# How it was run: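 Whole-cell patch clamp, bath 150 mM NaCl, 10 mM HEPES, 1 mM EGTA, 3 mM MgCl2, pH 7.4 (sometimes 2 mM CaCl2, 1 mM MgCl2). Currents recorded continuously at −60 mV or by 400 ms ramps from −40 mV holding every 4 s; inward/outward currents taken at −80/80 mV, with controlled-temperature focal perfusion.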
# human TRPA1, sequence (O75762 whole entry): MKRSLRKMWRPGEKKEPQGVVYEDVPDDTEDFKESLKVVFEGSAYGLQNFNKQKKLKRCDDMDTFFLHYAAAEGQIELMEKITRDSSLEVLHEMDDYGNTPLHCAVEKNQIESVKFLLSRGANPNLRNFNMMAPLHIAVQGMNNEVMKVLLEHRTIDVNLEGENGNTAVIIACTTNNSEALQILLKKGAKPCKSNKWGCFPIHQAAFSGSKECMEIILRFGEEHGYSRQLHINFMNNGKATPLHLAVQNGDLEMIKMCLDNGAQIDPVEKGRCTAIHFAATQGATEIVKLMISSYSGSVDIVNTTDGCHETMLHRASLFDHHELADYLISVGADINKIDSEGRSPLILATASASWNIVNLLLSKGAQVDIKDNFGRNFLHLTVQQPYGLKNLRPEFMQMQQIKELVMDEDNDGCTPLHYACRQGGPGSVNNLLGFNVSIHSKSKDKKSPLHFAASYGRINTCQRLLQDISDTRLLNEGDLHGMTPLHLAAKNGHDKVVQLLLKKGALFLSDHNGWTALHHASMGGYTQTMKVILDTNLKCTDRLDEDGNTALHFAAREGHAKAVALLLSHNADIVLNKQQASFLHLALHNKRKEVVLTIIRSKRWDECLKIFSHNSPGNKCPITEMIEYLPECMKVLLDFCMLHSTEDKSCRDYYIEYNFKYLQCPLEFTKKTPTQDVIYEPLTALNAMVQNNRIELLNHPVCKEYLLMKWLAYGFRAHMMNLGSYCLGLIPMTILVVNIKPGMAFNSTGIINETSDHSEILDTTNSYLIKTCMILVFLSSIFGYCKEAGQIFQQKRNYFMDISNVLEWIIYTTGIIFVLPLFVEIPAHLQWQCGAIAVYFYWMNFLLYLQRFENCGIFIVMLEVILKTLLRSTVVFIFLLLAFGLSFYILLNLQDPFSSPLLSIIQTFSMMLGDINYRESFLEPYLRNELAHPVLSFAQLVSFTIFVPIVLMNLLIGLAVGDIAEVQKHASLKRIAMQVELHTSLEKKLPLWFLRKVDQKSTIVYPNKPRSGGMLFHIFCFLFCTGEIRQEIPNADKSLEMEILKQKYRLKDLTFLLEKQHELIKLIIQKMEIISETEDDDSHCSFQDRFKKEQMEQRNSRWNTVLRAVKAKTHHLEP
row,IC50,SMILES
1,12 nM,"CCC(=O)Cn1c(=O)c2c(ncn2[C@@H](C)C(=O)Nc2csc(-c3cnc(C)c(F)c3)n2)n(C)c1=O [Compound 101, (S)—N-(2-(5-fluoro-6-methylpyridin-3-yl)thiazol-4-yl)-2-(3-methyl-2,6-dioxo-1-(2-oxobutyl)-2,3-dihydro-1H-purin-7(6H)-yl)propanamide]"
2,6 nM,"Cc1noc(Cn2c(=O)c3c(ncn3CC(=O)Nc3csc(-c4cnc(C(F)(F)F)c(C)c4)n3)n(C)c2=O)n1 [Compound 250, 2-(3-methyl-1-((3-methyl-1,2,4-oxadiazol-5-yl)methyl)-2,6-dioxo-2,3-dihydro-1H-purin-7(6H)-yl)-N-(2-(5-methyl-6-(trifluoromethyl)pyridin-3-yl)thiazol-4-yl)acetamide]"
3,1 nM,"Cc1cc(Cn2c(=O)c3c(ncn3CC(=O)Nc3csc(-c4cnc(C)c(C(F)(F)F)c4)n3)n(C)c2=O)no1 [Compound 246, 2-(3-methyl-1-((5-methylisoxazol-3-yl)methyl)-2,6-dioxo-2,3-dihydro-1H-purin-7(6H)-yl)-N-(2-(6-methyl-5-(trifluoromethyl)pyridin-3-yl)thiazol-4-yl)acetamide]"
4,141 nM,"Cc1cc(Cn2c(=O)c3c(ncn3CC(=O)Nc3cccc(N4CC5C(C4)C5(F)F)n3)n(C)c2=O)no1 (centres unmarked) [Compound 213, N-(6-(6,6-difluoro-3-azabicyclo[3.1.0]hexan-3-yl)pyridin-2-yl)-2-(3-methyl-1-((5-methylisoxazol-3-yl)methyl)-2,6-dioxo-2,3-dihydro-1H-purin-7(6H)-yl)acetamide]"
5,2 nM,"CC(=O)Cn1c(=O)c2c(ncn2[C@@H](C)C(=O)Nc2csc(-c3cnc(N4CCC[C@H]4C(F)(F)F)nc3)n2)n(C)c1=O [Compound 16, (S)-2-(3-methyl-2,6-dioxo-1-(2-oxopropyl)-2,3-dihydro-1H-purin-7(6H)-yl)-N-(2-(2-((S)-2-(trifluoromethyl)pyrrolidin-1-yl)pyrimidin-5-yl)thiazol-4-yl)propanamide]"
6,7 nM,COCC(=O)Cn1c(=O)c2c(ncn2[C@@H](C)C(=O)Nc2cccc(-c3cnc(N4CC5C(C4)C5(F)F)cn3)n2)n(C)c1=O (some centres unmarked) [Compound 272]
7,34 nM,"Cc1cc(Cn2c(=O)c3c(ncn3CC(=O)Nc3ccc(Br)c(C(F)(F)F)n3)n(C)c2=O)no1 [Compound 200, N-(5-bromo-6-(trifluoromethyl)pyridin-2-yl)-2-(3-methyl-1-((5-methyl-isoxazol-3-yl)methyl)-2,6-dioxo-2,3-dihydro-1H-purin-7(6H)-yl)acetamide]"
8,203 nM,"C[C@@H](C(=O)Nc1cncc(-c2cnc(C(F)(F)F)nc2)n1)n1cnc2c1c(=O)n(CC#N)c(=O)n2C [Compound 22, (S)-2-(1-(cyanomethyl)-3-methyl-2,6-dioxo-2,3-dihydro-1H-purin-7(6H)-yl)-N-(6-(2-(trifluoromethyl)pyrimidin-5-yl)pyrazin-2-yl)propanamide]"
9,62 nM,"CC(=O)Cn1c(=O)c2c(nc(C)n2CC(=O)Nc2cccc(-c3cnc(C(F)(F)F)nc3)n2)n(C)c1=O [Compound 194, 2-(3,8-dimethyl-2,6-dioxo-1-(2-oxopropyl)-1,2,3,6-tetrahydropurin-7-yl)-N-(6-(2-(trifluo-romethyl)pyrimidin-5-yl)pyridin-2-yl)acetamide]"
10,4 nM,"CCC(=O)Cn1c(=O)c2c(ncn2[C@@H](C)C(=O)Nc2cncc(-c3ccc(N4CC5C(C4)C5(F)F)nc3)n2)n(C)c1=O (stereo partly drawn) [Compound 84, (2S)—N-(6-(6-(6,6-difluoro-3-azabicyclo[3.1.0]hexan-3-yl)pyridin-3-yl)pyrazin-2-yl)-2-(3-methyl-2,6-dioxo-1-(2-oxobutyl)-2,3-dihydro-1H-purin-7(6H)-yl)propanamide]"
11,4 nM,"Cc1noc(Cn2c(=O)c3c(ncn3[C@@H](C)C(=O)Nc3ccnc(-c4cnc(C(F)(F)F)c(C)c4)n3)n(C)c2=O)n1 [Compound 150, (S)-2-(3-methyl-1-((3-methyl-1,2,4-oxadiazol-5-yl)methyl)-2,6-dioxo-2,3-dihydro-1H-purin-7(6H)-yl)-N-(2-(5-methyl-6-(trifluoromethyl)pyridin-3-yl)pyrimidin-4-yl)propanamide]"

# From US10221177B2 (HYDRA BIOSCIENCES, INC., priority 2014, dated 2019)
